Assay results from ChEMBL document CHEMBL4229430, “Inducing protein-protein interactions with molecular glues” (Bioorg Med Chem Lett, 2018).

Key:
[1] = Binding affinity to tobacco 14-3-3epsilon T14-3eDC mutant expressed in Escherichia coli assessed as Kd for 14-3-3epsilon binding to H+-ATPase peptide motif by surface plasmon resonance assay; design: species or system Nicotiana tabacum
[2] = target: T1, 14-3-3 protein zeta/delta (Homo sapiens, UniProt P63104); test: Binding affinity to human GST-tagged 14-3-3zeta expressed in Escherichia coli assessed as Kd for 14-3-3zeta binding to H+-ATPase peptide motif by isothermal titration calorimetric method
T1 sequence (P63104 whole entry): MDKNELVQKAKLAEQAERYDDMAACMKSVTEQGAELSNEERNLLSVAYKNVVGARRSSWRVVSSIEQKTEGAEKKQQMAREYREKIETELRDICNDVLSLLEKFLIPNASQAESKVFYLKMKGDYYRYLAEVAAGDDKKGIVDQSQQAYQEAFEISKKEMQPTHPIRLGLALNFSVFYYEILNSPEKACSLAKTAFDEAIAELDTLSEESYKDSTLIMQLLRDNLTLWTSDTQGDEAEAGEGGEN

Row | SMILES | Kd [1] | Kd [2]
1 | O=C(C1=C(O)C(=O)N(c2ccc(O)c(C(=O)O)c2)C1c1ccc([N+](=O)[O-])cc1)c1ccccc1 (stereo not drawn) | 80000 nM | 
2 | C=CC(C)(C)OC[C@H]1O[C@H](O[C@@H]2C3=C([C@H](C)COC(C)=O)C[C@H](O)[C@]3(C)/C=C3/[C@@H](COC)CC[C@H]3[C@@H](C)[C@H]2O)[C@H](O)[C@@H](OC(C)=O)[C@@H]1O |  | 700 nM
3 | CC(C)CC(NC(=O)[C@H](O)[C@H](N)Cc1ccccc1)C(=O)O (stereo partly drawn) | 1800 nM | 
